Entries after “also recorded” stand apart in the source; their conditions may differ. Read-outs that look alike come from different tables or passages of the source.
Key:
[1] = system: acetic acid-induced writhing; assay: acetic acid-induced writhing method (analgesic activity); format: in vivo, Swiss albino mice; conditions: for inhibition in vivo at 10 mg/kg: Mus musculus, read-out: % Analgesic Activity; for Potency (analgesic): relative to indomethacin = 1.00, 10 mg/kg; for Mean with ± SEM: writhes counted for 15 min; for analgesic activity (in words): compared with standard indomethacin
Description: All the tested compounds and standard drugs are evaluated at 10 mg/kg oral dose.
The analgesic activity of the tested compounds was carried out by acetic acid-induced writhing method as given in the literature using Swiss albino mice of either sex (25–35 g). The writh were induced in the albino mice using an intraperitoneal injection of 1% acetic acid solution. The standard drug indomethacin and test compounds were evaluated at a concentration of 10 mg/kg of the body weight. The animals were divided into groups and each group consisted of six animals. One group was kept as control, one as standard, and other as test groups. To the control group, 0.1% CMC solution was administered p.o; to the standard group, the standard drug was administered orally, and to the test group, test compounds were administered orally. After 60 min of the 0.1% CMC solution/standard drug/tested compound administration, 0.1 ml of 1% (v/v) acetic acid solution in distilled water was injected intraperitoneally in all the mice in each group including the control group. The writhing (a contraction of the abdomen, turning of trunk, and extension of hind limbs) was counted after 5 min of acetic acid administration and were counted for a period of 15 min. The percentage of analgesic activity was calculated using the following formula.
(Mean wriths of control—mean wriths of std./test) / mean wriths of control) × 100

Rat Paw Edema = assay: carrageenan-induced hind paw edema method (anti-inflammatory activity); format: in vivo, Wistar albino rats; conditions: for inhibition in vivo at 10 mg/kg: Rattus norvegicus, po; for inhibition in vivo at 10 mg/kg / anti-inflammatory activity (in words) / % Age Inhibition of Rat Paw Edema, 4 H: oral dose 10 mg/kg; for inhibition in vivo at 10 mg/kg / % Age Inhibition of Rat Paw Edema, 4 H: mean ± SEM; for anti-inflammatory activity (in words): compared with standard indomethacin; for Potency (anti-inflammatory): relative to indomethacin = 1.00
Description: The anti-inflammatory activity of the synthesized compounds (4a–n) was evaluated by the carrageenan-induced paw edema method. An oral dose of 10 mg/kg was used for compounds and compared with the standard. Anti-inflammatory activity was accessed through percentage inhibition after 2 and 4 h (Table 1).
Compounds produced were assessed for their anti-inflammatory activity using the carrageenan-induced hind paw edema method. The anti-inflammatory activity was carried out using Wistar albino rats of either sex (150–220 g) using a Digital Plethysmometer (Model No. 7140, UGO BASILE). The edema was induced by using 1% carrageenan solution. Indomethacin was used as a standard drug. The anti-inflammatory activity of the standard drug and tested compounds was determined at a dose of 10 mg/kg body weight. The animals were divided into groups containing six animals each and the initial paw volume of each rat was noted by the NaCl displacement method. One group was kept as control, one as standard, and the rest of the groups of compounds were to be tested. To the control group, 1% CMC solution was administered p.o. To the standard group, the standard drug was administered orally. To the test group, tested compounds were administered orally. After 60 min of the 1% CMC solution/standard drug/test compound administration, 0.1 ml of 1% (w/v) carrageenan was injected in the plantar region of the hind limb (right) of all the rats in each group including the control group. The paw volume was again measured after the time interval of 2 and 4 h. Using the following formula, inflammation was calculated as percentage inhibition for the test and reference compounds
(Final foot volume of control—final foot volume of std./test) × 100 / final foot volume of control)

[2] = 2 h, 2 h, read-out: % Age Inhibition of Rat Paw Edema, 2 H
[3] = 4 h, 4 h, read-out: % Age Inhibition of Rat Paw Edema, 4 H

| Compound | melting point | inhibition in vivo at 10 mg/kg ([1]; oral dose 10 mg/kg, mean ± SEM) | Potency (analgesic) [1] | Mean with ± SEM ([1]; oral dose 10 mg/kg) | inhibition in vivo at 10 mg/kg (Rat Paw Edema; [2]) | inhibition in vivo at 10 mg/kg (Rat Paw Edema; [3]) | anti-inflammatory activity (in words) (Rat Paw Edema) | Potency (anti-inflammatory) (Rat Paw Edema; 10 mg/kg) | inhibition in vivo at 10 mg/kg ([1]; po) | % Age Inhibition of Rat Paw Edema, 4 H (Rat Paw Edema; 4 h, 10 mg/kg) | anti-inflammatory activity (in words) (Rat Paw Edema; 10 mg/kg) | analgesic activity (in words) ([1]; oral dose 10 mg/kg) |
| --- | --- | --- | --- | --- | --- | --- | --- | --- | --- | --- | --- | --- |
| O=C1C(=NNc2nc(-c3cc4ccccc4oc3=O)cs2)c2ccccc2N1CNc1ccccc1 [Compound 4a, 3-{[4-(2-Oxo-2H-chromen-3-yl)-thiazol-2-yl]-hydrazono}-1-phenylaminomethyl-1,3-dihydro-indol-2-one] | 245 to 247 °C | 47.5 ± 0.707% | 0.64 | 17.00 ± 0.2582 | 38.29 ± 0.016% | 5.57 ± 0.041% | negligible anti-inflammatory activity | 0.06 |  |  |  |  |
| O=C1C(=NNc2nc(-c3cc4ccccc4oc3=O)cs2)c2ccccc2N1CNc1ccc(F)cc1 [Compound 4b, 1-[(4-Fluoro-phenylamino)-methyl]-3-{[4-(2-oxo-2H-chromen-3-yl)-thiazol-2-yl]-hydrazono}-1,3-dihydro-indol-2-one] | 242 to 244 °C | 25.9 ± 0.58% | 0.35 | 24.00 ± 0.3651 | 59.3 ± 0.73% | 45.81 ± 0.069% |  | 0.55 |  |  |  |  |
| O=C1C(=NNc2nc(-c3cc4ccccc4oc3=O)cs2)c2ccccc2N1CNc1ccc(Br)cc1 [Compound 4d, 1-[(4-Bromo-phenylamino)-methyl]-3-{[4-(2-oxo-2H-chromen-3-yl)-thiazol-2-yl]-hydrazono}-1,3-dihydro-indol-2-one] | 241 to 243 °C | 42.9 ± 0.71% | 0.58 | 18.50 ± 0.4282 | 51.92 ± 0.337% | 6.98 ± 0.315% | negligible anti-inflammatory activity | 0.08 |  |  |  |  |
| O=C1C(=NNc2nc(-c3cc4ccccc4oc3=O)cs2)c2ccccc2N1CNc1ccccc1[N+](=O)[O-] [Compound 4e, 1-[(2-Nitro-phenylamino)-methyl]-3-{[4-(2-oxo-2H-chromen-3-yl)-thiazol-2-yl]-hydrazono}-1,3-dihydro-indol-2-one] | 244 to 246 °C | 47.9 ± 1% | 0.65 | 16.88 ± 0.222 | 62.24 ± 0.08% | 48.6 ± 0.09% |  | 0.59 |  |  |  |  |
| O=C1C(=NNc2nc(-c3cc4ccccc4oc3=O)cs2)c2ccccc2N1CNc1ccc([N+](=O)[O-])cc1[N+](=O)[O-] [Compound 4g, 1-[(2,4-Dinitro-phenylamino)-methyl]-3-{[4-(2-oxo-2H-chromen-3-yl)-thiazol-2-yl]-hydrazono}-1,3-dihydro-indol-2-one] | 247 to 249 °C |  | 0.51 | 20.09 ± 0.3561 | 53.57 ± 0.16% | 77.9% |  | 0.94 | 38 ± 1% | 77.94 ± 0.184 % | good anti-inflammatory activity; also recorded: significant anti-inflammatory activity |  |
| O=C1C(=NNc2nc(-c3cc4ccccc4oc3=O)cs2)c2ccccc2N1CNn1cnnc1 [Compound 4h, 3-{[4-(2-Oxo-2H-chromen-3-yl)-thiazol-2-yl]-hydrazono}-1-([1,2,4]triazol-4-ylaminomethyl)-1,3-dihydro-indol-2-one] | 236 to 238 °C | 26.5 ± 0.317% | 0.35 | 23.83 ± 0.3073 | 35.39 ± 0.273% | 64.69 ± 0.245% |  | 0.78 |  |  |  | steep decrease in analgesic activity |
| O=C1C(=NNc2nc(-c3cc4ccccc4oc3=O)cs2)c2ccccc2N1CNc1ccncc1 [Compound 4j, 3-{[4-(2-Oxo-2H-chromen-3-yl)-thiazol-2-yl]-hydrazono}-1-(pyridine-4-ylaminomethyl)-1,3-dihydro-indol-2-one] | 237 to 239 °C | 47.14 ± 0.402% | 0.64 | 17.13 ± 0.539 | 53.81 ± 0.12% | 77.9% |  | 0.94 |  |  | good anti-inflammatory activity; also recorded: significant anti-inflammatory activity |  |
| O=C1C(=NNc2nc(-c3cc4ccccc4oc3=O)cs2)c2ccccc2N1CNc1cccnc1 [Compound 4k, 3-{[4-(2-Oxo-2H-chromen-3-yl)-thiazol-2-yl]-hydrazono}-1-(pyridine-3-ylaminomethyl)-1,3-dihydro-indol-2-one] | 231 to 233 °C | 7.96 ± 0.432% | 0.10 | 29.83 ± 0.3073 | 38.09 ± 0.214% | 70.8% | significant anti-inflammatory activity | 0.86 |  | 70.75 ± 0.165% |  | least analgesic activity |
| O=C1C(=NNc2nc(-c3cc4ccccc4oc3=O)cs2)c2ccccc2N1CNc1ccc([N+](=O)[O-])cc1 [Compound 4l, 1-[(4-Nitro-phenylamino)-methyl]-3-{[4-(2-oxo-2H-chromen-3-yl)-thiazol-2-yl]-hydrazono}-1,3-dihydro-indol-2-one] | 241 to 243 °C | 44.98 ± 0.336% | 0.61 | 17.83 ± 0.3079 | 54.76 ± 0.228% | 80.9% |  | 0.98 |  | 80.94 ± 0.149 % | good anti-inflammatory activity; also recorded: highest anti-inflammatory activity |  |
| Cc1ccc(NCN2C(=O)C(=NNc3nc(-c4cc5ccccc5oc4=O)cs3)c3ccccc32)cc1 [Compound 4m, 3-{[4-(2-Oxo-2H-chromen-3-yl)-thiazol-2-yl]-hydrazono}-1-(p-tolylamino-methyl)-1,3-dihydro-indol-2-one] | 244 to 246 °C | 32.6 ± 0.845% | 0.44 | 21.83 ± 0.2051 | 53.27 ± 0.183% | 78.4% |  | 0.95 |  | 78.42 ±0.183 % | good anti-inflammatory activity; also recorded: significant anti-inflammatory activity; also recorded: better anti-inflammatory activity | less analgesic activity |
